Laboratory results from ChEMBL document CHEMBL1201862, “PubChem BioAssay data set” (2004).
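Cells were grown in 96-well plates and exposed to each compound for 48 hours at five concentrations; endpoints were interpolated linearly between bracketing concentrations, or set to the highest concentration if not reached. Abbreviation: GI50, concentration required for 50% inhibition of growth.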 Active and inactive are the calls of the source. Cut-off read from the data, not from the text of the source: active = GI50 up to about 1.1 µM and inactive = higher.

Assays:
Assay in all cases: NCI tumour cell line growth inhibition, 48 h
EKVX = tested on: EKVX
DMS-114 = tested on: DMS-114
M14 = tested on: M14
786-0 = tested on: 786-0
SK-MEL-2 = tested on: SK-MEL-2
SW-620 = tested on: SW-620
SK-OV-3 = tested on: SK-OV-3
TK-10 = tested on: TK-10
DLD-1 = tested on: DLD-1
M19-MEL = tested on: M19-MEL
HOP-92 = tested on: HOP-92
SNB-19 = tested on: SNB-19
CCRF-CEM = tested on: CCRF-CEM
OVCAR-3 = tested on: OVCAR-3
MOLT-4 = tested on: MOLT-4
XF498 = tested on: XF498
LXFL 529 = tested on: LXFL 529
A549 = tested on: A549
SF-295 = tested on: SF-295
HCT-116 = tested on: HCT-116
HCC 2998 = tested on: HCC 2998
SN12C = tested on: SN12C
NCI-H522 = tested on: NCI-H522
UACC-257 = tested on: UACC-257
UO-31 = tested on: UO-31
OVCAR-8 = tested on: OVCAR-8
COLO 205 = tested on: COLO 205
SF-268 = tested on: SF-268
IGROV-1 = tested on: IGROV-1
HL-60 = tested on: HL-60
SK-MEL-5 = tested on: SK-MEL-5
RXF 631 = tested on: RXF 631
HT-29 = tested on: HT-29
SF-539 = tested on: SF-539
RPMI-8226 = tested on: RPMI-8226
UACC-62 = tested on: UACC-62
NCI-H460 = tested on: NCI-H460
DMS-273 = tested on: DMS-273
SNB-75 = tested on: SNB-75
HCT-15 = tested on: HCT-15
HOP-62 = tested on: HOP-62
Malme-3M = tested on: Malme-3M
NCI-H23 = tested on: NCI-H23
SK-MEL-28 = tested on: SK-MEL-28
OVCAR-4 = tested on: OVCAR-4
SNB-78 = tested on: SNB-78
LOX IMVI = tested on: LOX IMVI
RXF 393 = tested on: RXF 393
CAKI-1 = tested on: CAKI-1
K562 = tested on: K562
KM12 = tested on: KM12
A498 = tested on: A498
U-251 = tested on: U-251
HOP-18 = tested on: HOP-18
NCI-H226 = tested on: NCI-H226
ACHN = tested on: ACHN
KM-20L2 = tested on: KM-20L2
SR = tested on: SR
OVCAR-5 = tested on: OVCAR-5

O=C1C=C2CCCC2C(C(=O)O)(C(=O)O)C1 (stereo not drawn)
GI50 (EKVX): > 100 µM (inactive) | GI50 (DMS-114): > 100 µM (inactive) | GI50 (M14): > 100 µM (inactive) | GI50 (786-0): > 100 µM (inactive) | GI50 (SK-MEL-2): > 100 µM (inactive) | GI50 (SW-620): > 100 µM (inactive) | GI50 (SK-OV-3): > 100 µM (inactive) | GI50 (TK-10): > 100 µM (inactive) | GI50 (DLD-1): > 100 µM (inactive) | GI50 (M19-MEL): > 100 µM (inactive) | GI50 (HOP-92): > 100 µM (inactive) | GI50 (SNB-19): > 100 µM (inactive) | GI50 (CCRF-CEM): > 100 µM (inactive) | GI50 (OVCAR-3): > 100 µM (inactive) | GI50 (MOLT-4): > 100 µM (inactive) | GI50 (XF498): > 100 µM (inactive) | GI50 (LXFL 529): > 100 µM (inactive) | GI50 (A549): > 100 µM (inactive) | GI50 (SF-295): > 100 µM (inactive) | GI50 (HCT-116): > 100 µM (inactive) | GI50 (HCC 2998): > 100 µM (inactive) | GI50 (SN12C): > 100 µM (inactive) | GI50 (NCI-H522): > 100 µM (inactive) | GI50 (UACC-257): > 100 µM (inactive) | GI50 (UO-31): > 100 µM (inactive) | GI50 (OVCAR-8): > 100 µM (inactive) | GI50 (COLO 205): > 100 µM (inactive) | GI50 (SF-268): > 100 µM (inactive) | GI50 (IGROV-1): > 100 µM (inactive) | GI50 (HL-60): > 100 µM (inactive) | GI50 (SK-MEL-5): > 100 µM (inactive) | GI50 (RXF 631): > 100 µM (inactive) | GI50 (HT-29): > 100 µM (inactive) | GI50 (SF-539): > 100 µM (inactive) | GI50 (RPMI-8226): > 100 µM (inactive) | GI50 (UACC-62): > 100 µM (inactive) | GI50 (NCI-H460): > 100 µM (inactive) | GI50 (DMS-273): > 100 µM (inactive) | GI50 (SNB-75): > 100 µM (inactive) | GI50 (HCT-15): > 100 µM | GI50 (HOP-62): > 100 µM (inactive) | GI50 (Malme-3M): > 100 µM (inactive) | GI50 (NCI-H23): > 100 µM (inactive) | GI50 (SK-MEL-28): > 100 µM (inactive) | GI50 (OVCAR-4): > 100 µM (inactive) | GI50 (SNB-78): > 100 µM (inactive) | GI50 (LOX IMVI): > 100 µM (inactive) | GI50 (RXF 393): > 100 µM (inactive) | GI50 (CAKI-1): > 100 µM (inactive) | GI50 (K562): > 100 µM (inactive) | GI50 (KM12): > 100 µM (inactive) | GI50 (A498): > 100 µM (inactive) | GI50 (U-251): > 100 µM (inactive)

C=CCSC[C@H](NC(=O)COc1ccccc1)C(=O)NC(C(=O)OCc1ccc([N+](=O)[O-])cc1)=C(C)C
GI50 (EKVX): 43.7 µM (inactive) | GI50 (DMS-114): 45.3 µM (inactive) | GI50 (M14): 47.9 µM (inactive) | GI50 (786-0): > 100 µM (inactive) | GI50 (SK-MEL-2): > 100 µM (inactive) | GI50 (SK-OV-3): > 100 µM (inactive) | GI50 (DLD-1): > 100 µM (inactive) | GI50 (M19-MEL): 32.1 µM (inactive) | GI50 (HOP-18): > 100 µM (inactive) | GI50 (CCRF-CEM): 45.5 µM (inactive) | GI50 (OVCAR-3): 45.7 µM (inactive) | GI50 (MOLT-4): 19.8 µM (inactive) | GI50 (LXFL 529): 36.1 µM (inactive) | GI50 (A549): 62.1 µM (inactive) | GI50 (SF-295): 50.8 µM (inactive) | GI50 (HCT-116): > 100 µM (inactive) | GI50 (HCC 2998): > 100 µM (inactive) | GI50 (SN12C): > 100 µM (inactive) | GI50 (NCI-H522): 26.4 µM (inactive) | GI50 (UACC-257): 52.4 µM (inactive) | GI50 (UO-31): 33.6 µM (inactive) | GI50 (OVCAR-8): 63 µM (inactive) | GI50 (COLO 205): 20.6 µM (inactive) | GI50 (SF-268): > 100 µM (inactive) | GI50 (IGROV-1): > 100 µM (inactive) | GI50 (HL-60): 23.3 µM (inactive) | GI50 (SK-MEL-5): 27.6 µM (inactive) | GI50 (RXF 631): 90.8 µM (inactive) | GI50 (HT-29): 39.1 µM (inactive) | GI50 (NCI-H226): 28.6 µM (inactive) | GI50 (RPMI-8226): 39.2 µM (inactive) | GI50 (UACC-62): 72.6 µM (inactive) | GI50 (NCI-H460): 49.5 µM (inactive) | GI50 (DMS-273): 50.4 µM (inactive) | GI50 (ACHN): 54 µM (inactive) | GI50 (SNB-75): 37.6 µM (inactive) | GI50 (HCT-15): 65.5 µM | GI50 (HOP-62): > 100 µM (inactive) | GI50 (Malme-3M): > 100 µM (inactive) | GI50 (SK-MEL-28): > 100 µM (inactive) | GI50 (OVCAR-4): 62.2 µM (inactive) | GI50 (KM-20L2): > 100 µM (inactive) | GI50 (SNB-78): 63.2 µM (inactive) | GI50 (LOX IMVI): 64.9 µM (inactive) | GI50 (RXF 393): 49.7 µM (inactive) | GI50 (K562): 44.5 µM (inactive) | GI50 (KM12): 73.5 µM (inactive) | GI50 (A498): 12.2 µM (inactive) | GI50 (U-251): 76.6 µM (inactive)

C#CCNC(=O)NCCCC(NC(C)=O)C(=O)NCc1ccccc1 (stereo not drawn)
GI50 (EKVX): > 100 µM (inactive) | GI50 (DMS-114): > 100 µM (inactive) | GI50 (M14): > 100 µM (inactive) | GI50 (786-0): > 100 µM (inactive) | GI50 (SW-620): > 100 µM (inactive) | GI50 (SK-OV-3): > 100 µM (inactive) | GI50 (TK-10): > 100 µM (inactive) | GI50 (DLD-1): > 100 µM (inactive) | GI50 (M19-MEL): > 100 µM (inactive) | GI50 (HOP-18): > 100 µM (inactive) | GI50 (HOP-92): > 100 µM (inactive) | GI50 (SNB-19): > 100 µM (inactive) | GI50 (CCRF-CEM): > 100 µM (inactive) | GI50 (OVCAR-3): > 100 µM (inactive) | GI50 (MOLT-4): > 100 µM (inactive) | GI50 (SR): > 100 µM (inactive) | GI50 (LXFL 529): > 100 µM (inactive) | GI50 (A549): > 100 µM (inactive) | GI50 (SF-295): > 100 µM (inactive) | GI50 (HCT-116): > 100 µM (inactive) | GI50 (HCC 2998): > 100 µM (inactive) | GI50 (SN12C): > 100 µM (inactive) | GI50 (NCI-H522): > 100 µM (inactive) | GI50 (UACC-257): > 100 µM (inactive) | GI50 (OVCAR-5): > 100 µM (inactive) | GI50 (UO-31): > 100 µM (inactive) | GI50 (OVCAR-8): > 100 µM (inactive) | GI50 (COLO 205): > 100 µM (inactive) | GI50 (SF-268): > 100 µM (inactive) | GI50 (IGROV-1): > 100 µM (inactive) | GI50 (HL-60): > 100 µM (inactive) | GI50 (SK-MEL-5): > 100 µM (inactive) | GI50 (RXF 631): > 100 µM (inactive) | GI50 (HT-29): > 100 µM (inactive) | GI50 (NCI-H226): > 100 µM (inactive) | GI50 (SF-539): > 100 µM (inactive) | GI50 (RPMI-8226): > 100 µM (inactive) | GI50 (UACC-62): > 100 µM (inactive) | GI50 (NCI-H460): > 100 µM (inactive) | GI50 (ACHN): > 100 µM (inactive) | GI50 (SNB-75): > 100 µM (inactive) | GI50 (HCT-15): > 100 µM | GI50 (HOP-62): > 100 µM (inactive) | GI50 (Malme-3M): > 100 µM (inactive) | GI50 (NCI-H23): > 100 µM (inactive) | GI50 (SK-MEL-28): > 100 µM (inactive) | GI50 (OVCAR-4): > 100 µM (inactive) | GI50 (KM-20L2): > 100 µM (inactive) | GI50 (SNB-78): > 100 µM (inactive) | GI50 (LOX IMVI): > 100 µM (inactive) | GI50 (RXF 393): > 100 µM (inactive) | GI50 (CAKI-1): > 100 µM (inactive) | GI50 (K562): > 100 µM (inactive) | GI50 (KM12): > 100 µM (inactive) | GI50 (A498): > 100 µM (inactive) | GI50 (U-251): > 100 µM (inactive)
